Patent US11378572B2, “Therapeutic agent for immune cell migration-caused disease and method for screening same” (ZYMEDI CO., LTD., priority 2017, dated 2022)
Entries after “also recorded” stand apart in the source; their conditions may differ.

What was measured:
[1] = tested on: 129Sv/J Alport mice (COL4A3 knockout mouse); assay: Animal model of Alport syndrome; assay type: in vivo, 129Sv/J mice; conditions: 100 mg/kg oral once a day, 4 weeks
Method: The experiment was conducted using 129Sv/J mice (Boys town hospital). Animals groups were (i) 129Sv/J wild-type mice with vehicle administration (0.5% methyl cellulose suspension), (ii) 129Sv/J Alport mice (COL4A3 knockout mouse, Cosgrove D et al., Genes Dev. 1996 Dec. 1, 10(23):2981-92) with vehicle administration (0.5% methyl cellulose suspension) (iii) 129Sv/J Alport mice with BC-KI-00053 administration. Each animal group consists of two mice. BC-KI-00053 was dissolved in 0.5% methyl cellulose suspension and orally administered at a concentration of 100 mg/kg, and kidney fibrosis and the immune cell infiltration were evaluated. Each animal group was treated with a control substance or a test agent once a day from 3 weeks of age for a total of 4 weeks. After 4 weeks of treatment, kidney paraffin sections were stained with collagen I (a marker of fibrosis) and CD45 to observe the extent of leukocyte infiltration. Evaluation of fibrosis and infiltration was performed in the same manner as in the above examples.

KRS = target: T1, KRS (Mus musculus, UniProt Q99MN1); assay: KRS level in plasma membrane/cytosol fractions by western blot (KRS translocation to the plasma membrane); assay type: cell-based; conditions: RAW 264.7 cells, laminin 421 1 μg/ml, 100 nM compound, 12 hours
T1 construct: KRS, which is expressed in monocytes/macrophages and usually present in the cytoplasmic domain, translocates to the plasma membrane by LN421 treatment; endogenous in cells; host or cells: RAW 264.7
Method: After dispensing RAW 264.7 cells (2×10^6 cells) in 100 mm dish and incubating for 18 hours, cells were treated with LN421 l g/ml in serum free DMEM media and harvested at 0 hour, 12 hour, 24 hour. Proteins of RAW 264.7 cells were separated into the cytosol and membrane fractions using ProteoExtract Subcellular Proteome Extraction Kit (Calbiotech, cat #539790). Obtained proteins were electrophoresed and transferred to PVDF membrane (Milipore) and blocked with 3% skim milk. KRS was then detected by western blot. Specifically, KRS polyclonal antibody (rabbit, Neomics, Co. Ltd. #NMS-01-0005) was added and reacted for 1 hour. Unbound antibody was removed and the membrane was added and reacted with anti-rabbit secondary antibody (ThermoFisher Scientific, #31460). After reacting with the secondary antibody, films were exposed in the dark room using ECL reagent as a substrate. […]
First, in order to determine whether various KRS inhibitor candidates could exert inhibitory effect on the KRS translocation to the plasma membrane, RAW 264.7 cells (2×10^6 cells) were dispensed in 100 mm dishes and incubated for 18 hours, followed by treatment with laminin 421 1 μg/ml in serum free DMEM, and 100 nM of each of various KRS inhibitor candidates, and cells were further incubated for 12 hours. […] Afterwards, KRS was detected by western blot, and the specific method were as described in Example 3. […]

[2] = tested on: pulmonary arterial hypertension (PAH) model; assay: Monocrotaline pulmonary arterial hypertension (PAH) model, BC-KI-00053; assay type: in vivo, SD rats
Method: In order to induce PAH in 6-week-old female SD rats (Oriental Bio), 60 mg/kg of MCT (monocrotaline), a substance that causes pulmonary hypertension through pulmonary arterial injury, was injected subcutaneously. Then animals were divided into four groups (5 animals per group), and orally administered with vehicle, sildenafil (25 mg/kg, once daily) or BC-KI-00053 (25 or 50 mg/kg, dissolved in vehicle, once daily) for 3 weeks. Vehicle was corn oil:polyethylene glycol 400:Tween 80:methyl cellulose (1%)=20:30:1:49.
Three weeks later, rats were anesthetized with isoflurane, and blood flow and pressure were measured using an MPVS cardiovascular pressure and volume system (model name: MPVS Ultra, manufactured by Millar Instruments). Right ventricular systolic pressure (RVESP) and diastolic pressure, left ventricular systolic pressure and diastolic pressure were measured using a dedicated catheter (Mikro-Tip rat pressure catheter, manufactured by Millar Instruments). Cardiac output was measured using a perivascular blood flow probe (Transonic® Flowprobes, manufactured by […]), and experimental techniques were performed in the same manner as described in the literature: Pacher P, Nagayama T, Mukhopadhyay P, Batkai S, Kass D A. Measurement of cardiac function using pressure-volume conductance catheter technique in mice and rats. Nat Protoc 2008, 3(9):1422-34.
IHC staining for CD68, a monocyte/macrophage marker, was performed using lung tissues from each experimental group. Collected lungs were fixed in PFA (paraformaldehyde) according to the conventional procedure, and then embedded in paraffin through water washing, dehydration, and tissue clearing processes. Lung tissue paraffin blocks of rats were cut to a thickness of […] and slides were prepared. Thereafter, staining was performed as follows. First, three times for 5 minutes xylene treatment, 2 minutes in 100% ethanol twice, 95% ethanol, 90% ethanol, 70% ethanol, DW treatment for 2 minutes in this order and washed with PBS for 5 minutes (2 times). After treatment with 0.3% H2O2 (10 minutes), slides were washed twice with PBS for 5 minutes. Then slides were soaked in 0.01M citrate buffer of pH 6.0 and microwaved for 3 minutes and 30 seconds, then antigen retrieval of cooling for 10 seconds and reheating for 10 seconds was repeated for 10 minutes followed by 20 minutes of cooling at room temperature. Afterwards, slides were washed three times for 5 minutes with PBS-T (0.03% Triton-X). After 30 minutes blocking (2% BSA & 2% goat serum in PBS) at 4° C. anti-CD68 antibody (1:200, Abcam, ab31630) was treated overnight at 4° C. After washing three times with PBS-T for 5 minutes, slides were treated with polymer-HRP anti-mouse envision kit (DAKO) for 1 hour at 4° C. After washing 3 times with PBS-T for 5 minutes, 1 ml of DAB substrate buffer and 20 ul of DAB chromogen were mixed and treated with tissue. After 10 minutes when colors developed, slides were washed twice with tertiary distilled water. Stained tissues were treated with Mayer's hematoxylin (Sigma) for 1 minute, and then treated in the order of 70% ethanol, 90% ethanol, 95% ethanol, and 100% ethanol, twice for 2 minutes for each solution. Finally, after three times of xylene treatment for 5 minutes, cover slides were mounted using a mounting solution, and observed with an optical microscope.

[3] = 25 or 50 mg/kg oral once daily 3 weeks

T1 sequence (Q99MN1 whole entry, the tested form may be a part): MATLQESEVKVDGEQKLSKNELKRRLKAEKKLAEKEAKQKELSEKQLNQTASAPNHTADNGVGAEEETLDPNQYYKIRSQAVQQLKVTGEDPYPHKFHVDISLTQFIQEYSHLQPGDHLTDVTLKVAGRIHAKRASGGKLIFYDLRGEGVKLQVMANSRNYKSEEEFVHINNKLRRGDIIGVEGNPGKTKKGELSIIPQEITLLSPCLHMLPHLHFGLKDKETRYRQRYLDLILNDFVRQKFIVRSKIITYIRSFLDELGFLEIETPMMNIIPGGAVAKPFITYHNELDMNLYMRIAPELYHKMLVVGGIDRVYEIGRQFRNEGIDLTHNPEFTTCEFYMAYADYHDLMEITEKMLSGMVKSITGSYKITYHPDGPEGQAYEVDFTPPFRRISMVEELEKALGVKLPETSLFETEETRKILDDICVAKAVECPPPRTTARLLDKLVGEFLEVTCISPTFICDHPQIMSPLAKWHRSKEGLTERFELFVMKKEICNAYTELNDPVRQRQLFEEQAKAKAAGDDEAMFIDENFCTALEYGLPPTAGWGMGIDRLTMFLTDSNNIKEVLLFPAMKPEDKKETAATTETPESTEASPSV

Structure (SMILES): COc1ccc(CCN(Cc2ccc(C(=O)O)cc2)c2nc3cccc(F)c3s2)cc1 [BC-KI-00053, 4-({(7-fluorobenzo[d]thiazol-2-yl)[2-(4-methoxyphenyl)ethyl]amino}methyl)benzoic acid]
- fibrosis in the kidneys (collagen I) [1]: reduced down to the normal level
- leukocyte infiltration in the kidneys (CD45) [1]: reduced down to the normal level
- level of KRS in the plasma membrane region (KRS): reversed; also recorded: significantly lowered
- left ventricular end systolic pressure (LVESP) ([2]; 50 mg/kg, not statistically significant): increased
- left ventricular end systolic pressure (LVESP) [2, 3]: no decrease
- lung tissue infiltration of monocytes/macrophages (CD68 IHC) [2, 3]: clearly reduced
- RVESP (right ventricular systolic pressure) ([2]; 25 or 50 mg/kg oral once daily 3 weeks, concentration dependent): significantly reduced
- reduction of lung monocyte/macrophage infiltration compared with sildenafil ([2]; CD68 IHC): noticeably superior to sildenafil
- tendency to affect systemic artery pressure compared with sildenafil ([2]; rat, in vivo): lower tendency
